Experimental data as given in ChEMBL document CHEMBL1150843, “Hortein, a new natural product from the fungus Hortaea werneckii associated with the sponge Aplysina aerophoba” (J Nat Prod, 2001).
The source made the active and inactive calls.

Experiments:
Assay type in all cases: functional, organism-based
Staphylococcus aureus = test: Antibacterial activity against Staphylococcus aureus ATCC 25923 after 4 days by serial dilution test
Escherichia coli = test: Antibacterial activity against Escherichia coli HB101 after 4 days by serial dilution test
Spodoptera littoralis = test: Insecticidal activity against Spodoptera littoralis larvae administered through artificial diet by chronic feeding assay
Bacillus subtilis = test: Antibacterial activity against Bacillus subtilis 168 after 4 days by serial dilution test; details: subsp. subtilis str. 168
Candida albicans = test: Antifungal activity against Candida albicans after 4 days by serial dilution test

Measured: Activity

O=C1CCC(=O)c2c1c(O)c(O)c1c2-c2ccc(O)c3c(O)ccc-1c23
inactive: all assays above
